Assay results published in patent publication US7179604B2, “Methods of use of DNA encoding a human histamine receptor of the H3 subtype” (Ortho-McNeil Pharmaceutical, Inc., priority 1998, dated 2007).

Target: T1, human histamine H3 receptor (Homo sapiens, UniProt Q9Y5N1, E19D)
T1 construct: achieved by transfection of full-length human histamine H3 receptor cDNA into a mammalian host cell; expressed in transfected cells; membrane preparation
Test: Saturation binding of [3H]-N-alpha-methylhistamine to membranes of pH3R expressing L cells
Details: recombinant receptor in L cells, FIG. 7, radioligand 0.01 nM-25 nM, room temperature 45 minutes
Procedure: Binding Assay on Recombinant Human Histamine H3 Receptor L cells that inhibited forskolin-stimulated cAMP accumulation as described above were grown in 150 cm2 tissue culture dishes. Cells were washed with saline solution, scraped with a cell scraper and collected by centrifugation (1000 rpm, 5 min). L cells expressing human histamine H3 receptor bound ^3H—N-alpha-methylhistamine with high affinity (FIG. 7). Cell membranes were prepared by homogenization of the cell pellet in 20 mM TRIS-HCl with a polytron tissue homogenizer for 10 seconds at high speed. Homogenate was centrifuged at 1000 rpm for 5 minutes at 4° C. The supernatant was then collected and centrifuged at 20,000×g for 25 minutes at 4° C. The final pellet is resuspended in 50 mM Tris-HCl. Cell membranes were incubated with ^3H—N-alpha-methylhistamine (0.01 nM–25 nM) in the presence or absence of excess histamine (10000 nM). Incubation was done at room temperature for 45 minutes. Membranes were harvested by rapid filtration over Whatman GF/C filters and washed 4 times with ice cold 50 mM TRIS HCl. Filters were then dried, mixed with scintillant and counted for radioactivity. […]

T1 sequence (Q9Y5N1 whole entry E19D): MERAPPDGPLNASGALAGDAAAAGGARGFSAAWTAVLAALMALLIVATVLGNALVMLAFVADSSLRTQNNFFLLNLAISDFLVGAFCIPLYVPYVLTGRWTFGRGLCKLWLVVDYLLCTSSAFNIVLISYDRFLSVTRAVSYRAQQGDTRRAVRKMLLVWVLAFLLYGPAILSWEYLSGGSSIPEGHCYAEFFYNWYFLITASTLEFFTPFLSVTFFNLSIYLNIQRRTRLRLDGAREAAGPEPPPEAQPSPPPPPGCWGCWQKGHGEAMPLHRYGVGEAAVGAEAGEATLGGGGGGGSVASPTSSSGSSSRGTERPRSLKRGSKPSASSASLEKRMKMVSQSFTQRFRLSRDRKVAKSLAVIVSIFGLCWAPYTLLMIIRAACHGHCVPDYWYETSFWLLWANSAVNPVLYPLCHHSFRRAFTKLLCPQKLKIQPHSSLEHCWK

[3H]CNCCc1cnc[nH]1 [^3H—N-alpha-methylhistamine]
affinity of binding to L cells expressing human histamine H3 receptor: high affinity
